Measurements from patent publication US10716771B2, “Pharmaceutical composition for preventing or treating immune diseases or inflammatory diseases, containing biguanide derivative compound as active ingredient” (THE CATHOLIC UNIVERSITY OF KOREA INDUSTRY-ACADEMIC …, priority 2013, dated 2020).

Experiments:
Th17 [1] = assay: Th17 activity by flow cytometry in rheumatoid arthritis disease model with metabolic syndrome; type: cell-based; conditions: flow cytometry anti-CD4, anti-IL-17
Method: (§1) Further, the incubated cells were analyzed by flow cytometry using anti-CD4-percp and anti-IL-17-Pe fluorescent antibodies, and as a result, it was verified that SD-196, 216 and 217 suppressed the activity of Th17 and simultaneously activated the expression of the regulatory T cells (Treg) (see FIG. 13).

Th17 [2] = assay: Th17 activity in lupus animal model; type: cell-based
Method: as §1
(§2) In order to evaluate a lupus therapeutic effect of the biguanide derivative compound of the present invention, in a lupus animal model, cytotoxicity, autoantibody generation, generation of inflammatory cytokines, and Th17 regulation were measured by the same method as Example 8.

IgG [3] = assay: IgG (autoantibody) ELISA, Example 8-2; type: cell-based, mouse; conditions: incubated supernatant, compared with metformin
Method: In order to evaluate an arthritis therapeutic effect of the biguanide derivative compound of the present invention, in a rheumatoid arthritis animal model, cytotoxicity, generation of autoantibody, expression of inflammatory cytokines and regulatory T cells (Treg), and osteoclast differentiation were measured. Like Examples, metformin was used as a control group.
(§3) In order to examine an effect of suppressing the generation of autoantibody of the biguanide derivative compound of the present invention, the incubated supernatant was collected and the IgG expression degree was examined by using an ELISA. A monoclonal anti-IgG was reacted at 4° C. overnight in a 96-well plate and then a non-specific binding was blocked by a blocking solution. A mouse control serum was continuously diluted by 1/2 to be used as a standard, added with the cell-incubated supernatant, and reacted at room temperature for 2 hrs. Thereafter, HRP-anti-IgG was reacted at room temperature for 2 hrs, washed four times after reaction, added with the diluted HRP-conjugate, and reacted at room temperature for 2 hrs.

IL-17 = IL-17 expression in rheumatoid arthritis disease model with metabolic syndrome; type: cell-based
Method: (§4) In order to evaluate an effect of suppressing the expression of the inflammatory cytokine of the biguanide derivative compound of the present invention, the incubated supernatant was collected and the expression degrees of IL-17 and TNF-α of a mouse were examined by using a sandwich ELISA. […] of a monoclonal anti-IL-17 or anti-TNF-α was reacted in a 96-well plate at 4° C. overnight and then a non-specific binding was blocked by a blocking solution (1% BSA/PBST) after the reaction. An IL-17 or TNF-α recombinant was continuously diluted by 1/2 to be used as a standard, added with the cell-incubated supernatant, and reacted at room temperature for 2 hrs. Thereafter, biotinylated anti-IL-17 or anti-TNF-α was added and reacted at room temperature for 2 hrs, washed four times after the reaction, diluted with a diluted ExtraAvidin-alkaline phosphatase conjugate, and reacted at room temperature for 2 hrs. After the reaction, a PNPP/DEA was added and colored, and absorbance was measured at a wavelength of 405 nm.
as §1

TNF-α [4] = assay: TNF-α sandwich ELISA, Example 8-3; type: cell-based, mouse; conditions: incubated supernatant
Method: as §4, with “In order to evaluate an arthritis therapeutic effect of the biguanide derivative compound of the present invention, in a rheumatoid arthritis animal model, cytotoxicity, generation of autoantibody, expression of inflammatory cytokines and regulatory T cells (Treg), and osteoclast differentiation were measured. Like Examples, metformin was used as a control group. In” for “In”

IgG [5] = assay: IgG generation in lupus animal model; type: cell-based; conditions: compared with metformin
Method: as §3, §2

[6] = Cytotoxicity (MTT) in lupus animal model; type: cell-based
Method: In order to examine cytotoxicity of the biguanide derivative compound of the present invention, an MTT assay was performed. Cells were isolated from the spleen in a normal mouse group and the isolated cells were incubated for 3 days in the concentration of 0.5 μg/ml of anti-CD3 or 100 ng/ml of LPS 100, and metformin, SD-196, SD-216 or SD-217 was treated for each concentration and incubated for 3 days. […] In order to evaluate a lupus therapeutic effect of the biguanide derivative compound of the present invention, in a lupus animal model, cytotoxicity, autoantibody generation, generation of inflammatory cytokines, and Th17 regulation were measured by the same method as Example 8.

TNF-α [7] = assay: TNF-α expression in lupus animal model; type: cell-based
Method: as §4, §2

[8] = tested on: cells isolated from the spleen; assay: Cytotoxicity MTT assay, Example 8-1 (rheumatoid arthritis evaluation); type: cell-based; conditions: mouse spleen cells, anti-CD3 0.5 μg/ml or LPS 100 ng/ml, 3 days
Method: In order to evaluate an arthritis therapeutic effect of the biguanide derivative compound of the present invention, in a rheumatoid arthritis animal model, cytotoxicity, generation of autoantibody, expression of inflammatory cytokines and regulatory T cells (Treg), and osteoclast differentiation were measured. Like Examples, metformin was used as a control group. In order to examine cytotoxicity of the biguanide derivative compound of the present invention, an MTT assay was performed. Cells were isolated from the spleen in a normal mouse group and the isolated cells were incubated for 3 days in the concentration of 0.5 μg/ml of anti-CD3 or 100 ng/ml of LPS 100, and metformin, SD-196, SD-216 or SD-217 was treated for each concentration and incubated for 3 days.

[9] = tested on: regulatory T cells (Treg); assay: Regulatory T cell (Treg) expression in rheumatoid arthritis disease model with metabolic syndrome; type: cell-based
Method: Further, in order to examine whether the biguanide derivative compound of the present invention activates the expression of regulatory T cells (Treg), the incubated cells were flow-cytometry by using anti-CD4-percp, anti-CD25-APC, and anti Foxp3-Pe fluorescent antibodies (ab), and as a result, it was verified that SD-196, 216 and 217 activated the Foxp3+ Treg cells (see FIG. 10).
as §1

osteoclast = assay: Osteoclast differentiation, TRAP staining; type: cell-based, mouse; conditions: bone marrow of arthritis animal model, MCSF 10 ng/ml and RANKL 50 ng/ml
Method: In order to verify whether the biguanide derivative compound of the present invention suppresses the osteoclast differentiation, while a bone marrow extracted from a leg in an arthritis animal model was treated with MCSF (10 ng/ml) and RANKL (50 ng/ml) to differentiate the osteoclast, metformin, SD-196, SD-216, and SD-217 were treated, respectively, and the differentiation degrees of the osteoclast were evaluated. The evaluation was performed by using TRAP straining.

| SMILES | activity of Th17 (Th17 [1]) | activity of Th17 (Th17 [2]) | expression of IgG (IgG [3]) | expression of IL-17 (IL-17) | TNF-α inflammatory cytokine expression (TNF-α [4]) | expression of IgG (IgG [5]) | cytotoxicity [6] | expression of TNF-α (TNF-α [7]) | cytotoxicity (MTT assay) [8] | expression of the regulatory T cells (Treg) [9] | differentiation of the osteoclast (osteoclast) |
| --- | --- | --- | --- | --- | --- | --- | --- | --- | --- | --- | --- |
| CC(C)NC(=N)NC(=N)N [SD-000196, 1-isopropylbiguanide] | suppressed | suppressed | significantly suppressed | suppressed | significantly suppressed | significantly suppressed | no cytotoxicity | suppressed | no cytotoxicity | activated | significantly suppress |
| NC(N)=N/C(N)=N/c1cccc(F)c1 [SD-000216, 1-(3-fluorophenyl)biguanide] | suppressed | suppressed | significantly suppressed | suppressed | significantly suppressed | significantly suppressed | no cytotoxicity | suppressed | no cytotoxicity | activated | significantly suppress |
| N=C(N)NC(=N)Nc1ccc(F)cc1F [SD-000217, 1-(2,4-difluorophenyl)biguanide] | suppressed | suppressed | significantly suppressed | suppressed | significantly suppressed | significantly suppressed | no cytotoxicity | suppressed | no cytotoxicity | activated | significantly suppress |
